Assays:
[1] = Oxygen and carbon dioxide partial pressures of the PFB before bubbling, after bubbling and after intrarectal administration; design: species or system mice; settings: after oxygen bubbling vs before
C57BL6J mice = assay: Intrarectal oxygenated perflubron in mice having respiratory failure, SpO2 monitor; assay type: in vivo; settings: 15% hypoxic condition; 40 mL/kg into the rectum
Method: Experiment was carried out to administer oxygenated perflubron to mice having respiratory failure. PFB manufactured by OriGen Biomedical (Perflubron, product name: Liquivent) was oxygenated by oxygen bubbling. Male C57BL6J mice (male) ranging from 20 to 30 g were grouped into two groups: control group (physiological saline administration group); and I-EVA group (using oxygenated perflubron). The mice of the control group were each anesthetized by intraperitoneal administration of ketamine (80 to 100 mg/kg) and xylazine (10 mg/kg) and subjected to inhalation under 15% hypoxic condition, and, when SpO2 just exceeded 70%, perflubron was administered into the rectum at 40 mL/kg, and effects on respiratory failure were validated by using an SpO2 monitor.

[2] = Systemic toxicity after six cycles of administration of PFD, analysis of serum; assay type: in vivo; settings: for ALP / AST / Albumin / CK / Calcium / Chloride / Creatinine / Erythrocytes / Glucose / Hematocrit / Hemoglobin / Leukocytes / Platelets / Pottasium / Sodium / Total cholesterol / Tri-glyceride / Urea nitrogen / ALT: 6 doses (time/day), blood collection Day 2; for ALT: *p < 0.05
Method: (§1) The blood PDF concentration 0.5 hours, 2 hours, and 24 hours after administration of perfluorodecalin (PFD) was measured by GC/MS/MS at times (n=6). […] Systemic toxicity after six cycles of administration of PDF was examined.

[3] = Oxygen partial pressure of PFC bubbled with pure oxygen; assay type: physicochemical
Method: (§2) With use of a liquid perfluorocarbon (PFC)^12-16, an intestinal gas ventilation (ILV) system was developed. Mice were randomly assigned to two groups: sham group (group 9, n=10); and intestinal gas ventilation group (group 12, n=12). For the intestinal gas ventilation (ILV), a PFC (octadecafluorodecahydronaphthalene, Wako Pure Chemical Industries, Ltd., Osaka, Japan) was bubbled with pure oxygen for 45 minutes to dissolve oxygen therein.
First, an O2-containing PFC was prepared (by O2 bubbling at 1 L/min over 45 minutes; FIG. 3A). For mice (groups 12, 18, 19; hereinafter, referred to as intestinal gas ventilation (ILV) groups), the liquid of PFC was then infused into the intestinal tract (i.e., the rectum) in a total volume of 1 mL/mouse. The average oxygen pressure in the PFC after O2 bubbling for 45 minutes was 438±19.9 mmHg (n=3, FIG. 4E). Effects on the treated mice were evaluated by mobility assay. In summary, the walking distances of the mice were calculated to find statistical increase for the group with O2—PFC liquid infusion therapy after inhalation of hypoxic gas (the ILV group with administration of the O2-containing PFC) as compared with the control group (FiO2 0.10, control group, 0.408±1.02 cm per 20 seconds; FiO2 0.10, treated group, 3.34±4.05 cm, p<0.0001, FIG. 3B).

hypoxic pigs = assay: Intrarectal oxygenated PFC in hypoxic pigs; assay type: in vivo; settings: intrarectal administration
C57BL/6J mice [4] = assay: Intestinal liquid ventilation (ILV) with oxygenated PFC, oxygen partial pressure in inferior vena cava; assay type: in vivo; settings: 120 min after 1 mL PFC via the intestinal tract
Method: as §2

[5] = test system: acute respiratory distress syndrome (ARDS) pig model; assay: Intrarectal oxygenated PFC in acute respiratory distress syndrome (ARDS) pig model; assay type: in vivo; settings: ARDS pigs
Method: Furthermore, an acute respiratory distress syndrome (ARDS) pig model was produced, and improvement of oxygen partial pressure by intrarectal administration of oxygenated PFC was examined. First, micromini pigs and pork pigs (female) were used to produce an ARDS model. Physiological saline was directly administered into the airway at 40 mL/kg. […] Histological examination of lung tissue confirmed impairment of alveolar walls such as the formation of hyaline membranes, the formation of residual protein layers in alveolar spaces, and septal hypertrophy. […] Then, the thus-produced ARDS pigs were each subjected to laparotomy by median incision, and a drain for administration of perfluorodecalin was placed at a depth of 40 cm from the anus, and an […] DennisTM Colorectal Tube for recovery of perfluorodecalin was placed in the anus side.

C57BL/6J mice [6] = assay: ILV in respiratory failure model, oxygen partial pressure in left ventricle (FiO2 0.10); assay type: in vivo
Method: In ILV experiment, mice were randomly assigned to two groups: sham group (group 13, n=4); and ILV groups (group 18, n=4; group 19, n=4). The PFC was given to each mouse via the intestinal tract in the above-described manner, and 60 minutes and 120 minutes thereafter the oxygen partial pressure in the left ventricle of the heart under inhalation of hypoxic gas was analyzed (FiO2 0.10, inhalation time: 10 minutes).

[7] = Blood PFD concentration by GC/MS/MS; assay type: in vivo; settings: 0.5 hours, 2 hours, and 24 hours after administration, n=6
Method: as §1

LEWIS rats = assay: Intrarectal oxygenated perfluorodecalin, blood gas (FIG. 9); assay type: in vivo; settings: for blood oxygen partial pressure vs physiological saline: intrarectal 20 mL/kg
Method: As an experiment for reproduction, LEWIS rats (male) ranging from 250 to 350 g were grouped into three groups: control group; I-EVA group (using research-grade perfluorodecalin (PFD) from Wako Pure Chemical Industries, Ltd.); and I-EVA group (using clinical-grade perfluorodecalin from F2C). Perfluorodecalin bubbled with pure oxygen gas was administered into the rectum of each rat at 20 mL/kg, and 15 minutes and 120 minutes thereafter the arterial blood was collected under anesthesia and 21% oxygen inhalation, and the oxygen partial pressure was measured.
Next, C57BL6J mice ranging from 20 to 30 g were grouped into two group: control group (physiological saline administration group); and I-EVA group (using perfluorodecalin from F2C with oxygenation). The mice of the control group were each anesthetized by intraperitoneal administration of ketamine (80 to 100 mg/kg) and xylazine (10 mg/kg) and subjected to inhalation under 15% hypoxic condition, and, when SpO2 just exceeded 70%, oxygenated perfluorodecalin was administered into the rectum at 40 mL/kg, and effects on respiratory failure were validated by using an SpO2 monitor. After the completion of the experiment, the perfluorodecalin enterally administered was recovered, and the carbon dioxide concentration was measured to compare with that measured before the operation.

mice = assay: Oral administration of PFD subjected to oxygen bubbling, left ventricular blood gas; assay type: in vivo
Method: PFD subjected to oxygen bubbling was administered to mice through oral administration, and the effects on blood oxygen partial pressure and carbon dioxide partial pressure were examined. As a negative control, a mouse group with oral administration of physiological saline ([…]; n=3) was used. […] In the negative control group, in contrast to that, there were smaller amounts of contents in the intestinal tract than in the bubbled-PFD oral administration group (FIG. 14A). An attempt was made to recover contents by inserting a syringe into the intestinal tract. In the attempt, transparent liquid suspected to be PFD was successfully recovered in the syringe for the bubbled-PFD oral administration group (FIG. 14B). For the negative control group, by contrast, such liquid was not recovered, and nothing recovered was left in the syringe. […] One hour after administration, tracheostomy was performed, and ventilation was performed with room air under management with a ventilator. Thoracotomy was performed and blood was collected from the heart, and the oxygen partial pressure and carbon dioxide partial pressure in the blood obtained were measured by iSTAT.

C57BL/6J mice [8] = assay: Behavior analysis (walking distance) of ILV-treated hypoxic mice; assay type: in vivo; settings: per 20 seconds; FiO2 0.10; 120 minutes after injection to the intestinal tract
Method: Behavioral improvement in ILV-treated hypoxic mice was analyzed. The mobilities of mice were monitored for a set of two parameters from a fitted ellipse (centroidal positions (x, y)). With use of these parameters, walking distance was calculated every 20 seconds for mice of a control group and a treated group (both n=3). […] For the treated group, an O2-labeled perfluorocarbon was used as described above, and inhalation of hypoxic gas (FiO2 0.10) was performed 120 minutes after the injection to the intestinal tract (FIG. 4A).

[9] = 120 minutes after administration
[10] = oral 250 μL/mouse, heart blood one hour after administration, room air ventilation

With `FC(F)(F)C(F)(F)C(F)(F)C(F)(F)C(F)(F)C(F)(F)C(F)(F)C(F)(F)Br` [PFB, 1-bromo-heptadecafluorooctane] the “oxygen partial pressure of the PFB” value [1] was “enhanced oxygen partial pressure” and the SpO2 (C57BL6J mice) was “significant recovery of SpO2”.

With `FC1(F)C(F)(F)C(F)(F)C2(F)C(F)(F)C(F)(F)C(F)(F)C(F)(F)C2(F)C1(F)F` (stereo not shown) [PFD, octadecafluorodecahydronaphthalene] the ALP ([2]; PFD dose volume 1 ml/head) was 470 ± 112 U/L, the AST ([2]; PFD dose volume 1 ml/head) was 68 ± 2 U/L and the Albumin ([2]; PFD dose volume 1 ml/head) was 2.6 ± 0.1 g/dL. The CK ([2]; PFD dose volume 1 ml/head) was 170 ± 22 U/L, the Calcium ([2]; PFD dose volume 1 ml/head) was 10.1 ± 0.1 mg/dL and the Chloride ([2]; PFD dose volume 1 ml/head) was 103 ± 1 mmol/L. The Creatinine ([2]; PFD dose volume 1 ml/head) was 0.2 mg/dL, the Erythrocytes ([2]; PFD dose volume 1 ml/head) was 752 ± 24 ×10^4/μl and the Glucose ([2]; PFD dose volume 1 ml/head) was 123 ± 22 mg/dL. The Hematocrit ([2]; PFD dose volume 1 ml/head) was 45.0 ± 1.1%, the Hemoglobin ([2]; PFD dose volume 1 ml/head) was 15.1 ± 0.7 g/dL and the Leukocytes ([2]; PFD dose volume 1 ml/head) was 102 ± 18 10^2/μL. For the same molecule, the Platelets ([2]; PFD dose volume 1 ml/head) was 112 ± 11.5 10^4/µL, the Pottasium ([2]; PFD dose volume 1 ml/head) was 3.6 ± 0.2 mmol/L and the Sodium ([2]; PFD dose volume 1 ml/head) was 143 mmol/L. For the same molecule, the Total cholesterol ([2]; PFD dose volume 1 ml/head) was 75 ± 20 mg/dL, the Tri-glyceride ([2]; PFD dose volume 1 ml/head) was 21 ± 7 mg/dL and the Urea nitrogen ([2]; PFD dose volume 1 ml/head) was 14 ± 2 mg/dL. For the same molecule, the ALT ([2]; PFD dose volume 1 ml/head) was 24 ± 3* U/L, the ALP ([2]; PFD dose volume 1.5 ml/head) was 540 ± 64 U/L and the AST ([2]; PFD dose volume 1.5 ml/head) was 72 ± 5 U/L. The Albumin ([2]; PFD dose volume 1.5 ml/head) was 2.6 ± 0.1 g/dL, the CK ([2]; PFD dose volume 1.5 ml/head) was 196 ± 12 U/L and the Calcium ([2]; PFD dose volume 1.5 ml/head) was 9.9 ± 0.3 mg/dL. The Chloride ([2]; PFD dose volume 1.5 ml/head) was 105 ± 1 mmol/L, the Creatinine ([2]; PFD dose volume 1.5 ml/head) was 0.3 ± 0.1 mg/dL and the Erythrocytes ([2]; PFD dose volume 1.5 ml/head) was 791 ± 24 ×10^4/μl. It also gave a Glucose ([2]; PFD dose volume 1.5 ml/head) of 123 ± 18 mg/dL, a Hematocrit ([2]; PFD dose volume 1.5 ml/head) of 45.6 ± 1.4% and a Hemoglobin ([2]; PFD dose volume 1.5 ml/head) of 15.2 ± 0.6 g/dL. The Leukocytes ([2]; PFD dose volume 1.5 ml/head) was 88 ± 5 10^2/μL, the Platelets ([2]; PFD dose volume 1.5 ml/head) was 124 ± 20.1 10^4/µL and the Pottasium ([2]; PFD dose volume 1.5 ml/head) was 3.6 ± 0.2 mmol/L. For the same molecule, the Sodium ([2]; PFD dose volume 1.5 ml/head) was 143 ± 1 mmol/L, the Total cholesterol ([2]; PFD dose volume 1.5 ml/head) was 71 ± 22 mg/dL and the Tri-glyceride ([2]; PFD dose volume 1.5 ml/head) was 20 ± 4 mg/dL. The Urea nitrogen ([2]; PFD dose volume 1.5 ml/head) was 14 ± 2 mg/dL, the ALT ([2]; PFD dose volume 1.5 ml/head) was 25 ± 1* U/L and the “toxicity due to intrarectal administration” value ([2]; six cycles of administration, serum analysis) was “no particular toxicity”. For the same molecule, the “average oxygen pressure in the PFC” value ([3]; after O2 bubbling for 45 minutes (1 L/min), n=3) was 438±19.9 mmHg, the “average pressure of oxygen in the perfluorocarbon” value ([3]; bubbled with pure oxygen, after 120 minutes) was 438±19.9 mmHg and the “blood oxygen partial pressure” value (hypoxic pigs) was “improvement in blood oxygen partial pressure”. The “carbon dioxide partial pressure” value (hypoxic pigs) was “decrease in carbon dioxide partial pressure”, the oxygen saturation (hypoxic pigs) was “improved the oxygen saturation” and the “oxygen partial pressure in the inferior vena cava, pressure difference ILV group vs control group” value (C57BL/6J mice [4]) was 9.40±3.65 mmHg. For the same molecule, the acidosis [5] was “did not exhibit marked acidosis”, the “oxygen partial pressure, improvement” value ([5]; oxygenated perfluorodecalin repeatedly at 20 mL/kg intrarectal) was “about 300 mmHg” and the “ratio of arterial oxygen partial pressure between the control group and the treated group” value (C57BL/6J mice [6]; FiO2 0.10) was “approximately 1.6”. The “ventricular (arterial) oxygen partial pressure, PaO2” value (C57BL/6J mice [6]; ILV group, hypoxic environment (FiO2 0.10)) was 63.8±5.59 mmHg, the “oxygen partial pressure in the left ventricle of the heart vs control group” value (C57BL/6J mice [6]; hypoxic environment (FiO2 0.10), 60 minutes after ILV) was “significantly higher” and the “oxygen partial pressure in the left ventricle of the heart, pressure difference ILV group vs control group” value (C57BL/6J mice [6]; hypoxic environment (FiO2 0.10), after 120 minutes) was 23.8±3.11 mmHg. For the same molecule, the “blood PFD concentration (detection limit)” value [7] was less than 1 µg/mL, the “blood carbon dioxide partial pressure vs physiological saline” value (LEWIS rats; [9]) was “significantly decreasing blood carbon dioxide partial pressure” and the “blood oxygen partial pressure vs physiological saline” value (LEWIS rats; 15 minutes after administration) was “enhancing blood oxygen partial pressure”. The “blood oxygen partial pressure vs physiological saline” value (LEWIS rats; [9]) was “enhancing blood oxygen partial pressure”, the “gastrointestinal transit after oral administration” value (mice; oral 250 μL/mouse to the stomach by probe) was “passed through the stomach and arrived at the intestine” and the “blood carbon dioxide partial pressure vs negative control group” value (mice; [10]) was “tendency to exhibit decreased blood carbon dioxide partial pressure”. For the same molecule, the “blood oxygen partial pressure vs negative control group” value (mice; [10]) was “tendency to exhibit increased blood oxygen partial pressure” and the walking distance (C57BL/6J mice [8]) was 3.34±4.05 cm.

— patent US20230191096A1, “PHARMACEUTICAL COMPOSITION FOR USE IN TREATING SUBJECT IN HYPOXIC STATE DUE TO RESPIRATORY FAILURE, ETC” (National University Corporation Tokyo Medical and Dental …, priority 2020, published 2023)
